Like-named read-outs stand apart in the source and are kept apart here.
Key:
[1] = tested on: advanced HFrEF patients (ADRB1 Arg389Gly / ADRA2C Ins322-325Del genotypes); conditions: cited from earlier work
[2] = Systolic blood pressure and heart rate by scheduled visit; assay type: in vivo, human
Excerpt: Block is defined as the first of any of the following: 1) 3rd degree heart block (complete heart block); 2) any 2nd degree heart block with the presence of symptoms attributable to, and temporally correlated with the occurrence of heart block which include any of the following: Near-fainting or fainting (syncope)/Dizziness; Weakness or Fatigue; Shortness of breath; Chest pain; or 3) 2nd or 3rd degree heart block requiring implantation of a permanent pacemaker (with or without defibrillator). • Data source: • CVEVENT and AE eCRF forms. • Overall incidence and severity of treatment-emergent AEs/SAEs over time during the Total Study Period. Also events associated with device implantation. […] The AEs of special interest will be tabulated according to the following characteristics. • Development of treatment-emergent neoplastic conditions. • Progression or worsening of pre-study neoplastic conditions. • Progression or worsening of treatment-emergent neoplastic conditions. • Data source: • AE, NEOPLHX and NEOPLAS eCRF forms. • Clinical Chemistry and Hematology. • Visit collection: screen, start of follow-up Week 0 (protocol versions 1 and 2), Week 4 (protocol versions 3 and 4), Week 12 (protocol versions 3 and 4), Week 24, every 24 weeks during extension, end of treatment and end of study. […] Randomization Visit measurement prior to first dose will serve as the baseline. Will be analyzed at Week 0, 4, 12 and 24 visits as well as end of treatment and end of study. • Change from baseline to each analysis visit will be calculated and analyzed with descriptive statistics. • The numbers and percentages of patients with QTc increase from baseline exceeding 60 ms at any time point during the study. • Data source: • ECG eCRF form. • Vital signs and weight (data source: VITALS eCRF form). • Measured at every in-clinic visit. Randomization Visit measurement prior to first dose will serve as the baseline. Will be analyzed at Week 0, 4, 12 and 24 visits as well as end of treatment and end of study. • Change from baseline to each analysis visit will be calculated and analyzed with descriptive statistics. • Data source: • VITALS eCRF form. • Proportion of patients attaining target study drug dose during the Drug Titration Period. Will be calculated for all patients, those receiving β-blocker therapy prior to randomization and those not previously receiving β-blocker therapy. • Data Sources: • VISREC and DRUGLOG eCRF forms.

[3] = tested on: patients with HF and/or AF; assay: Literature β-blocker trials and meta-analyses for AF prevention / recurrence; assay type: in vivo, human
[4] = tested on: advanced HFrEF patients (ADRB1 Arg389Gly / ADRA2C Ins322-325Del genotypes); assay: BEST trial and DNA (pharmacogenetic) substudy: bucindolol vs. placebo; assay type: in vivo, human
Excerpt: The relationship of the ADRA2C Ins/Del polymorphism to systemic NE levels and clinical outcomes was investigated as part of the BEST trial AR polymorphism substudy.
Variables identified in the GENETIC-AF Statistical Analysis Plan (SAP) that were potential predictors of the primary endpoint were investigated by precision therapeutic phenotyping. Hypothesis-based (e.g., AF duration, AF type, LVEF, NYHA Class, NT-proBNP, norepinephrine) and hypothesis-free (e.g. HF duration, initial study dose) elements were included in the multivariate methodology, which was applied to both obvious and non-obvious data to identify a therapeutic phenotype appropriate for investigating in Phase 3. To examine the relationship between HF duration and bucindolol effectiveness for reducing HF events, we analyzed data from the BEST trial (14) and pharmacogenetic substudy (17) for the endpoint of time to all-cause mortality or first HF hospitalization (ACM/HFH).

[5] = target: T1, human β1-adrenergic receptor (Homo sapiens, UniProt P08588, G389R); assay: Estimated β1-AR receptor occupancy from plasma concentration and KD; conditions: 12 weeks trough plasma concentration
T1 construct: from tissue; host or cells: notional myocardial receptor of GENETIC-AF patients; no receptor preparation was assayed
T1 sequence (P08588 whole entry G389R): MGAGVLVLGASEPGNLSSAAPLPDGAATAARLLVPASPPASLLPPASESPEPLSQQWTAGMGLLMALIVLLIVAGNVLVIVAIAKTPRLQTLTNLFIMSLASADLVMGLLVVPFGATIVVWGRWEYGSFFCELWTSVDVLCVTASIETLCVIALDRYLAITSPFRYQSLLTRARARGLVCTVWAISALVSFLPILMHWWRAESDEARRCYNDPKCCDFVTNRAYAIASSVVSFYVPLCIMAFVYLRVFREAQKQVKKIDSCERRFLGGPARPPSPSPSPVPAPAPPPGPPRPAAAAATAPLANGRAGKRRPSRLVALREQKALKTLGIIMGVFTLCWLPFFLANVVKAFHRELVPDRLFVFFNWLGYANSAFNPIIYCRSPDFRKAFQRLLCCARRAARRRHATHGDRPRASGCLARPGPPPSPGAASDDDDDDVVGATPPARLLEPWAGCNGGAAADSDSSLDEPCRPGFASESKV

[6] = target: human β1-adrenergic receptor (Homo sapiens, UniProt P08588); conditions: cited from earlier work
human β1-adrenergic receptor (Homo sapiens, UniProt P08588), sequence (P08588 whole entry): as the sequence (P08588 whole entry G389R) above, with R389G counted along it

[7] = tested on: patients with HF and/or AF; conditions: cited from earlier work
[8] = BEST, {ADRA2C Del carrier and ADRB1 Arg389Arg}
[9] = BEST, {ADRA2C Del carriers and ADRB1 389Gly carriers}
[10] = BEST ADRB1 389Gly Carriers n = 482
[11] = BEST ADRB1 Arg389Arg, free of AF at randomization
[12] = BEST ADRB1 Arg389Arg, free of AF at randomization, bucindolol vs placebo
[13] = BEST DNA substudy all genotypes n = 1040

In the case of CC(C)(Cc1c[nH]c2ccccc12)NCC(O)COc1ccccc1C#N (stereo not shown) [bucindolol, 2-(3-(1-(1H-indol-3-yl)-2-methylpropan-2-ylamino)-2-hydroxypropoxy)benzonitrile], the “Reduction in NE” value ([1]; BEST trial at 12 weeks) is listed as 75 pg/mL, the “Decrease in NE (sympatholysis)” value ([1]; BEST, ADRA2C Del genotypes) is listed as 153 pg/mL and the “Decrease in NE (sympatholysis)” value ([1]; BEST, ADRA2C Ins homozygotes) is listed as 50 pg/mL. The “Effect sizes, time to ACM or HF hospitalization and CV mortality or CV hospitalization” value ([1]; BEST, ADRB1 Arg389Arg subset in permanent AF) was “exceeding 70%”, the “Reduction in the development (risk) of AF vs. placebo” value ([1]; BEST, ADRB1 Arg389Arg, sinus rhythm at baseline) was 74% and the “Reduction in NE” value ([1]; BEST, {ADRA2C Del carrier and ADRB1 Arg389Arg} combination genotype) was 120 pg/mL. The “Hazard ratio, ACM, bucindolol vs. placebo” value [1, 8] was 0.50, the “Hazard ratio, CVM, bucindolol vs. placebo” value [1, 8] was 0.40 and the “Hazard ratio, heart failure hospitalization burden, bucindolol vs. placebo” value [1, 8] was 0.60. For the same compound, the “Hazard ratio, ACM, bucindolol vs. placebo” value [1, 9] was 1.04, the “Hazard ratio, CVM, bucindolol vs. placebo” value [1, 9] was 1.11 and the “Hazard ratio, heart failure hospitalization burden, bucindolol vs. placebo” value [1, 9] was 1.19. For the same compound, the “Systolic Blood Pressure, Baseline Mean ± SEM” value ([2]; Baseline) was 124.7 ± 1.3 mmHg, the “Heart Rate, Baseline Mean ± SEM” value ([2]; Baseline, by ECG) was 76.5 ± 1.5 bpm and the “Systolic Blood Pressure, Mean ± SEM” value ([2]; Week 4 Change from Baseline) was −0.3 ± 1.5 mmHg. For the same compound, the “Heart Rate, Mean ± SEM” value ([2]; Week 4 Change from Baseline, by ECG) was 0.1 ± 1.6 bpm, the “Systolic Blood Pressure, Mean ± SEM” value ([2]; Week 12 Change from Baseline) was −0.5 ± 1.8 mmHg and the “Heart Rate, Mean ± SEM” value ([2]; Week 12 Change from Baseline, by ECG) was −1.5 ± 1.8 bpm. The “Systolic Blood Pressure, Mean ± SEM” value ([2]; Week 24 Change from Baseline) was −1.1 ± 1.5 mmHg, the “Heart Rate, Mean ± SEM” value ([2]; Week 24 Change from Baseline, by ECG) was 0.1 ± 2.3 bpm and the “Predicted relative effect size in favor of bucindolol vs. metoprolol” value ([3]; RES = Ln HzR1/Ln HzR2, prevention of AF in HFrEF) was 2.1 fold. For the same compound, the “Effect size in a direct comparison of bucindolol to metoprolol (estimated)” value ([3]; from relative effect size) was 51%, the “Risk ratio in a direct comparison of bucindolol to metoprolol (estimated)” value ([3]; from relative effect size) was 0.49 and the “Events/patients (rate), time to AF/AFL/ACM” value (“Events/patients (rate), time” below) [4, 10] was “(26.8%)”. For the same compound, the “Events/patients, time to AF/AFL/ACM” value [4, 10] was 61/228, the “Hazard Ratio (95% C.I.), time to AF/AFL/ACM” value ([4]; BEST ADRB1 389Gly Carriers, bucindolol vs placebo) was 0.95 and the “Events/patients (rate), time” value ([4]; BEST ADRB1 Arg389Arg n = 435) was “(18.5%)”. For the same compound, the “Events/patients, time to AF/AFL/ACM” value ([4]; BEST ADRB1 Arg389Arg n = 435) was 43/232, the ACM events [4, 11] was 33 and the “ACM events/pt (%)” value [4, 11] was 14.0%. The ACM/CVH events [4, 11] was 106, the “ACM/CVH events/pt (%)” value [4, 11] was 45.1% and the ACM/HFH events [4, 11] was 82. The “ACM/HFH events/pt (%)” value [4, 11] was 34.9%, the CVH events [4, 11] was 88 and the “CVH events/pt (%)” value [4, 11] was 37.5%. The CVM events [4, 11] was 25, the “CVM events/pt (%)” value [4, 11] was 10.6% and the CVM/HFH events [4, 11] was 76. For the same compound, the “CVM/HFH events/pt (%)” value [4, 11] was 32.3%, the HFH events [4, 11] was 65 and the “HFH events/pt (%)” value [4, 11] was 27.7%. For the same compound, the “ACM HzR” value [4, 12] was 0.61, the “ACM/CVH HzR” value [4, 12] was 0.72 and the “ACM/HFH HzR” value [4, 12] was 0.69. The “CVH HzR” value [4, 12] was 0.69, the “CVM HzR” value [4, 12] was 0.54 and the “CVM/HFH HzR” value [4, 12] was 0.66. The “HFH HzR” value [4, 12] was 0.70, the “Hazard Ratio (95% C.I.), time to AF/AFL/ACM” value ([4]; BEST ADRB1 Arg389Arg, bucindolol vs placebo) was 0.49 and the “Events/patients (rate), time” value [4, 13] was “(22.6%)”. For the same compound, the “Events/patients, time to AF/AFL/ACM” value [4, 13] was 104/460, the “Hazard Ratio (95% C.I.), time to AF/AFL/ACM” value ([4]; BEST DNA substudy all genotypes, bucindolol vs placebo) was 0.70 and the “Events/patients (rate), time” value ([4]; BEST Entire Cohort n = 2708) was “(33.6%)”. For the same compound, the “Events/patients, time to AF/AFL/ACM” value ([4]; BEST Entire Cohort n = 2708) was 401/1193, the “Hazard Ratio (95% C.I.), time to AF/AFL/ACM” value ([4]; BEST Entire Cohort, bucindolol vs placebo) was 0.80 and the β1-AR receptor occupancy ([5]; CYP2D6 EMs) was 85.2%. For the same compound, the β1-AR receptor occupancy ([5]; CYP2D6 IMs) was 94.6%, the β1-AR receptor occupancy ([5]; CYP2D6 PMs) was 99.0% and the “KD (KA in the occupancy formula), dissociation constant for human β1-ARs” value [6] was 3.6 nM.
In the case of COCCc1ccc(OCC(O)CNC(C)C)cc1 (stereo not shown) [metoprolol, metoprolol succinate, reference compound], the “Lowering of AF risk” value ([7]; HFrEF (MERIT-HF)) is listed as 48%, the “Incidence of AF recurrence” value ([7]; persistent AF, ECV to SR, end of 6-month follow-up) is listed as 52% and the Heart rate reduction ([2]; 4, 12 and 24 weeks) is listed as “greater heart rate reduction”. For the same compound, the “Heart Rate, Baseline Mean ± SEM” value ([2]; in vivo) was 76.0 ± 1.5 bpm, the “Heart Rate, Baseline Min, Max” value ([2]; in vivo) was 43.0, 119 and the “Systolic Blood Pressure, Baseline Mean ± SEM” value ([2]; in vivo) was 121.8 ± 1.4 mmHg. For the same compound, the “Systolic Blood Pressure, Baseline Min, Max” value ([2]; in vivo) was 90.0, 149.

Source: patent US10925856B2, “Methods and compositions involving bucindolol for the treatment of atrial fibrillation” (priority 2018, dated 2021)
